Experimental data as given in patent US10537563B2, “Methods for treating ocular disease using inhibitors of CSF-1R” (NOVARTIS AG, priority 2016, dated 2020).

Legend:
[1] = target: TRKB (Homo sapiens, UniProt Q16620); experiment: In vitro kinase assay (Table 1); format: biochemical
[2] = target: Erk1 (Homo sapiens, UniProt P27361); experiment: In vitro kinase assay (Table 1); format: biochemical
[3] = target: PAK4 (Homo sapiens, UniProt O96013); experiment: In vitro kinase assay (Table 1); format: biochemical
[4] = test system: human monocytes; experiment: Human monocyte survival in culture; format: cell-based; settings: concentration dependent effect
Method: (§1) Freshly isolated human PBMCs were used to purify human monocytes by negative selection using an indirect magnetic labeling system. […] Soluble factors such as cytokines (VEGFa, IL-6 etc.) and chemokines (IL-8, MCP-1, MMP9 etc.) in the culture supernatant were measured using commercial ELISA kits. The in vitro survival of human macrophages was measured using a commercially available CellTiter-Glo® system. Most observed results were repeated in multiple donors (n>5).

[5] = test system: MCP-1; experiment: MCP-1 production by human monocytes (ELISA); format: cell-based; settings: Monocyte
Method: as §1

[6] = target: T1, PDGFRKalphaT674I (h) (Homo sapiens, UniProt P16234, T674I); experiment: Kinase profiling at Invitrogen; format: biochemical
T1 construct: purchased Invitrogen
T1 sequence (P16234 550-1089 T674I limits assumed): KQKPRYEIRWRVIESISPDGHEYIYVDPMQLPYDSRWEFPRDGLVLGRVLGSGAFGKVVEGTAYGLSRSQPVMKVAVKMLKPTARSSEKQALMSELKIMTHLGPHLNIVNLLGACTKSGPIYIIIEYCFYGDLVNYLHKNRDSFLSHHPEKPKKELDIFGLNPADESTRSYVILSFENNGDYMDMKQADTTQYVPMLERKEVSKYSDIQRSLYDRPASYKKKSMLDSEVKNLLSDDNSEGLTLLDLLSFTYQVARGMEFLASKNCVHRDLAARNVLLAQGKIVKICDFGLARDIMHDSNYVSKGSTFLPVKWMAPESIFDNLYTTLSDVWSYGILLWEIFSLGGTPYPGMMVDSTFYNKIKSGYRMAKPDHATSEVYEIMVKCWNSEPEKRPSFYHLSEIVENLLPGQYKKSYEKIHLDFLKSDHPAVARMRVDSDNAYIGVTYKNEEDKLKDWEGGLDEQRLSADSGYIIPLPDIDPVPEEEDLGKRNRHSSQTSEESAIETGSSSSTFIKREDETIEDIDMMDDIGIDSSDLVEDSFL

[7] = target: PDK_1 (Homo sapiens, UniProt O15530); experiment: In vitro kinase assay (Table 1); format: biochemical
[8] = target: T2, BaF3-Tel-INSR 1.2 (Homo sapiens, UniProt P06213); experiment: BaF3 proliferation assay; format: cell-based, murine
T2 construct: fused on or other part: P41212 (Transcription factor ETV6)

[9] = target: T3, Khs1 (h) (Homo sapiens, UniProt Q9Y4K4); experiment: Kinase profiling at Invitrogen; format: biochemical
T3 construct: purchased Invitrogen
T3 sequence (Q9Y4K4 whole entry): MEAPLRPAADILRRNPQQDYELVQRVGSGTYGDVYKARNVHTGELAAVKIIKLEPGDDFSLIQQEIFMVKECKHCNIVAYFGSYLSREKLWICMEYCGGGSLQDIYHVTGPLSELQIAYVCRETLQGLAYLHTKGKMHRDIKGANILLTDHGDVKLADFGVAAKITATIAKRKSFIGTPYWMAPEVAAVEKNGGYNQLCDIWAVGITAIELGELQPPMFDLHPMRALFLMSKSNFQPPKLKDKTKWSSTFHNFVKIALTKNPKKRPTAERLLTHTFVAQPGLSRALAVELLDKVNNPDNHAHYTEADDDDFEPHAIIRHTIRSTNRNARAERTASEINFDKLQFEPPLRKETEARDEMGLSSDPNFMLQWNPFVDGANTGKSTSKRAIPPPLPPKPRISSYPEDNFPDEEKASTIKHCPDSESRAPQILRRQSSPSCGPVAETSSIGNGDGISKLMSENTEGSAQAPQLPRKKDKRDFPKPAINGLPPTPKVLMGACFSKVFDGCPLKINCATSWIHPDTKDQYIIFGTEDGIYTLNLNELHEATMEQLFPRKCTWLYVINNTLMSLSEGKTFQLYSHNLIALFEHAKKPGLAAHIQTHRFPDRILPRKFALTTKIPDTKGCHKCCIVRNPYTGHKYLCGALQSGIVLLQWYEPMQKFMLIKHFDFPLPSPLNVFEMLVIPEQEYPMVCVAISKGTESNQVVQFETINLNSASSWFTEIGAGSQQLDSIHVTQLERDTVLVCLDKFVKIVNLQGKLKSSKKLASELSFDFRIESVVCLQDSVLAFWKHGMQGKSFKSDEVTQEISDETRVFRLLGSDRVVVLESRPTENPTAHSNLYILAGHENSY

[10] = target: Cdk7 cyclinH MAT1 (Homo sapiens, UniProt P50613); experiment: In vitro kinase assay (Table 1); format: biochemical
[11] = target: T4, BAF/Bcr-Abl-Luc/sACP (Homo sapiens, UniProt P00519); experiment: BaF3 proliferation assay; format: cell-based, murine
T4 construct: no part of the key; P11274 (Breakpoint cluster region protein)

[12] = target: Lck (Homo sapiens, UniProt P06239); experiment: In vitro kinase assay (Table 1); format: biochemical
[13] = target: Hyl (Homo sapiens, UniProt P42679); experiment: In vitro kinase assay (Table 1); format: biochemical
[14] = target: Chk1 (Homo sapiens, UniProt O14757); experiment: In vitro kinase assay (Table 1); format: biochemical
[15] = target: T5, Syk (h) (Homo sapiens, UniProt P43405); experiment: Kinase profiling at Invitrogen; format: biochemical
T5 construct: purchased Invitrogen

[16] = target: Fyn (Homo sapiens, UniProt P06241); experiment: In vitro kinase assay (Table 1); format: biochemical
Fyn, sequence (P06241 whole entry, species assumed): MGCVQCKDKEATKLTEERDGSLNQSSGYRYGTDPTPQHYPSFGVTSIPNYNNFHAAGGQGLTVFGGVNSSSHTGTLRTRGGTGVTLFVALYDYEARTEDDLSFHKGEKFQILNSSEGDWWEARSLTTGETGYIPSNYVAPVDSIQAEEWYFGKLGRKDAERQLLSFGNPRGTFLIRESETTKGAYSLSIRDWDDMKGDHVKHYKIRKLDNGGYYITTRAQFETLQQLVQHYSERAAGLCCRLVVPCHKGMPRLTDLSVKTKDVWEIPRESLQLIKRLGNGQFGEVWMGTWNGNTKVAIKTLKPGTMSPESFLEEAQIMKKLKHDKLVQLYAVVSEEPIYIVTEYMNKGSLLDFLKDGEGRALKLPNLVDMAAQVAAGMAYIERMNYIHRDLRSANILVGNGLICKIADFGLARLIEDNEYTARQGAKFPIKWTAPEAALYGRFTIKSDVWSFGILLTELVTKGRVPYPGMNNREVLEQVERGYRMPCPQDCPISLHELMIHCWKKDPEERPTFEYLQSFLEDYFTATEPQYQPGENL

[17] = target: T6, PDGFRKalpha (h) (Homo sapiens, UniProt P16234); experiment: Kinase profiling at Invitrogen; format: biochemical
T6 construct: purchased Invitrogen
T6 sequence (P16234 24-1089): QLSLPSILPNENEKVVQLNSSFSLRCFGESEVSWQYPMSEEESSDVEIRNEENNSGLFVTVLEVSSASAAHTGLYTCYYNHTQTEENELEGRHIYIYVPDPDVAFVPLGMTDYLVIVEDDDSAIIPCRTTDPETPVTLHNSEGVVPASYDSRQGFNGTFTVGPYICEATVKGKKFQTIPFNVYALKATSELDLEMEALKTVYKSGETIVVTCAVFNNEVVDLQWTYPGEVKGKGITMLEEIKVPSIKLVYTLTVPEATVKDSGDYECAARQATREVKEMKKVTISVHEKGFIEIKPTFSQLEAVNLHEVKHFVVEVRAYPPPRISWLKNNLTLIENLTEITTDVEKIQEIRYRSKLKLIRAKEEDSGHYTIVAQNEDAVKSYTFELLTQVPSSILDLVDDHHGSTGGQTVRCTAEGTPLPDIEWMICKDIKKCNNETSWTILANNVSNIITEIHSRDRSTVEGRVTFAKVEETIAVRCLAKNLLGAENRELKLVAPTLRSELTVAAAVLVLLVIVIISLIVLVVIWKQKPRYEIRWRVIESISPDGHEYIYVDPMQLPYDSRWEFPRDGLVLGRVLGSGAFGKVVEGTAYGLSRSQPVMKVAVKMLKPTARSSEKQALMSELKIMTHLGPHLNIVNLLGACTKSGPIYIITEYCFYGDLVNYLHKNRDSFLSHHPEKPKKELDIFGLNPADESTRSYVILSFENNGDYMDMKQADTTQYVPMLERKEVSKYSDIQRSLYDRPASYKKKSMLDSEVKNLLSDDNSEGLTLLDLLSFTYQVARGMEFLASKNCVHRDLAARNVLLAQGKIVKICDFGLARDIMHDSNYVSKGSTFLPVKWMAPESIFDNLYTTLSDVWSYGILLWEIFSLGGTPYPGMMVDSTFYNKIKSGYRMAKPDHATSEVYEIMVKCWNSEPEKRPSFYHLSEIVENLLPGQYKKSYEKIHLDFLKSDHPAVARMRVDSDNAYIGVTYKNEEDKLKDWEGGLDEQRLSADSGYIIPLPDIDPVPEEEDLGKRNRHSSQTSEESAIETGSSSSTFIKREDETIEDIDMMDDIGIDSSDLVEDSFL

[18] = target: PIK3Calpha (Homo sapiens, UniProt P42336); experiment: In vitro kinase assay (Table 1); format: biochemical
[19] = target: T7, BAF/Tel-Lyn-1.2/sACP (Homo sapiens, UniProt P07948); experiment: BaF3 proliferation assay; format: cell-based, murine
T7 construct: fused on or other part: P41212 (Transcription factor ETV6)

[20] = target: T8, BAF/Tel-EphB2-Q2/sACP (Homo sapiens, UniProt P29323); experiment: BaF3 proliferation assay; format: cell-based, murine
T8 construct: fused on or other part: P41212 (Transcription factor ETV6)

[21] = test system: CD163; experiment: CD163 expression in M2c macrophages; format: cell-based, human
Method: as §1

[22] = target: Aurora_A (Homo sapiens, UniProt O14965); experiment: In vitro kinase assay (Table 1); format: biochemical
[23] = target: Hck (Homo sapiens, UniProt P08631); experiment: In vitro kinase assay (Table 1); format: biochemical
[24] = target: T9, BAF/Tel-Ros-1.1/sACP (Homo sapiens, UniProt P08922); experiment: BaF3 proliferation assay; format: cell-based, murine
T9 construct: fused on or other part: P41212 (Transcription factor ETV6)

[25] = target: FGFR1 (Homo sapiens, UniProt P11362); experiment: In vitro kinase assay (Table 1); format: biochemical
FGFR1, sequence (P11362 22-822, species assumed): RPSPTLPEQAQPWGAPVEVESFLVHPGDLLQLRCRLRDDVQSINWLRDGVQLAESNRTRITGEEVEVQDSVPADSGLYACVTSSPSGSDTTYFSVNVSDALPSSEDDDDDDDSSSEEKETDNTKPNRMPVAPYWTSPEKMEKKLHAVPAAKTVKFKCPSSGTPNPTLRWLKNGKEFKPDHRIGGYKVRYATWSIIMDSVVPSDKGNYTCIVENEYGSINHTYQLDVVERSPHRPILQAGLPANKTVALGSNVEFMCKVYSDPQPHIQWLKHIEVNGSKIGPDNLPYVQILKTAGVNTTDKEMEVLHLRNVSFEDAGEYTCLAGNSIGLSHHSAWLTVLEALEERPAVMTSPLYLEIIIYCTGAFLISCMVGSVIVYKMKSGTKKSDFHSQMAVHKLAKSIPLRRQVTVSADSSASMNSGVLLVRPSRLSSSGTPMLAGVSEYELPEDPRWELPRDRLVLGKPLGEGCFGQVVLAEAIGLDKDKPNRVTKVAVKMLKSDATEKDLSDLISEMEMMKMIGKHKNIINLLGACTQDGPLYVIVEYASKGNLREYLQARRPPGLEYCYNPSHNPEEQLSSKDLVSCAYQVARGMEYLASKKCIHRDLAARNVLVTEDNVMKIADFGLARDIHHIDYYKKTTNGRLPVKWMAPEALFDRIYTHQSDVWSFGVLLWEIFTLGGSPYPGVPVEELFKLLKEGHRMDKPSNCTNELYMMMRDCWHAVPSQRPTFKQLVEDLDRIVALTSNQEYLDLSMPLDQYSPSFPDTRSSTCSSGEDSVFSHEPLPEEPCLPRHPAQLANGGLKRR

[26] = target: T10, BAF/Tel-TIE2-1.2/sACP (Homo sapiens, UniProt Q02763); experiment: BaF3 proliferation assay; format: cell-based, murine
T10 construct: fused on or other part: P41212 (Transcription factor ETV6)

[27] = target: T11, CSF_1_RK (h) (Homo sapiens, UniProt P07333); experiment: Kinase profiling at Invitrogen; format: biochemical
T11 construct: purchased Invitrogen
T11 sequence (P07333 20-972): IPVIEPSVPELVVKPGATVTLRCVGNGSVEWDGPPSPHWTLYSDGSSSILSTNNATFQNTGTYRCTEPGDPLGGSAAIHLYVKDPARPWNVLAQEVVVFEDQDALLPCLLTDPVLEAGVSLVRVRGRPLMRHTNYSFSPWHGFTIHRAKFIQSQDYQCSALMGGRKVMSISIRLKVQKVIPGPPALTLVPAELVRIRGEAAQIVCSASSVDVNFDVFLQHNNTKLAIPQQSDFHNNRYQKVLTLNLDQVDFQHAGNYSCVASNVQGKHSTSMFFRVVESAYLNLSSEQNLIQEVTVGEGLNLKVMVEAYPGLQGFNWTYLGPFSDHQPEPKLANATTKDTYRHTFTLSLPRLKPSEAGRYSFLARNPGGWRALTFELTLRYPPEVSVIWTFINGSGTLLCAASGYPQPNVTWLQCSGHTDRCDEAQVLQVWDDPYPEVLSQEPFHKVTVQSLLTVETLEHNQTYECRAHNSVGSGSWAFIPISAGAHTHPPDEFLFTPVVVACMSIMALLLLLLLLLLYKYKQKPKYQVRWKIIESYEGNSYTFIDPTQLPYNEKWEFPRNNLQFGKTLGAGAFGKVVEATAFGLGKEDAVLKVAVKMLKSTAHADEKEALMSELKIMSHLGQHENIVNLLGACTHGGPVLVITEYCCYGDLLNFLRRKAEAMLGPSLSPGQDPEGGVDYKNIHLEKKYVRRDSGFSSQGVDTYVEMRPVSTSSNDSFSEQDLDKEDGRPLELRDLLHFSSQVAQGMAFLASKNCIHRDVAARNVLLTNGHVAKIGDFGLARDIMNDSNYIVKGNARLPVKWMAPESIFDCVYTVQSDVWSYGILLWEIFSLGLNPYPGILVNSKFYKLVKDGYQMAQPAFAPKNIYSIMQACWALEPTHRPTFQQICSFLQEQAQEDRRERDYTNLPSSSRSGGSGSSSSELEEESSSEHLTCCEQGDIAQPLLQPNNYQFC

[28] = target: IGF-1R (Homo sapiens, UniProt P08069); experiment: In vitro kinase assay (Table 1); format: biochemical
[29] = test system: CD206; experiment: CD206 expression in M2a macrophages; format: cell-based, human
Method: as §1

[30] = test system: cytokine-polarized human macrophages (M1 or M2); experiment: Survival of fully differentiated, cytokine-polarized human macrophages; format: cell-based
Method: as §1

[31] = target: PIK3C_VPS34 (Homo sapiens, UniProt Q8NEB9); experiment: In vitro kinase assay (Table 1); format: biochemical
[32] = target: PKC_epsilon (Homo sapiens, UniProt Q02156); experiment: In vitro kinase assay (Table 1); format: biochemical
[33] = target: p38alpha (Homo sapiens, UniProt Q16539); experiment: In vitro kinase assay (Table 1); format: biochemical
[34] = target: T12, BAF/Tel-FGFR4-Q4/sACP (Homo sapiens, UniProt P22455); experiment: BaF3 proliferation assay; format: cell-based, murine
T12 construct: fused on or other part: P41212 (Transcription factor ETV6)
T12 sequence (P22455 467-755 limits assumed, change not shown): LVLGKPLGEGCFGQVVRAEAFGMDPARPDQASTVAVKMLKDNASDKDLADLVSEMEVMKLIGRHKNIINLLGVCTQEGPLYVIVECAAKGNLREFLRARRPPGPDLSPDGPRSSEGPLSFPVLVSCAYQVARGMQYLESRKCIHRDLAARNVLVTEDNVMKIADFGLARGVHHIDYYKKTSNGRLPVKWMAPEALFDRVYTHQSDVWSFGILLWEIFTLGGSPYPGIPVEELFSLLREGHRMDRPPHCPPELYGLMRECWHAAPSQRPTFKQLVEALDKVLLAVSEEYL

## CNC(=O)c1cc(Oc2ccc3nc(NC4CCCCC4O)sc3c2)ccn1 (centres unmarked) [Compound (I)]
[1]
  IC50: > 10 µM
[2]
  IC50: > 10 µM
[3]
  IC50: > 10 µM
[4]
  concentration at which monocyte survival was significantly affected: ≥ 0.6 µM
[5]
  inhibition at 0.05 µM: 30 to 70%
[6]; read-out: % inhibition @ 0.5 μM, PDGFRKalphaT674I (h)
  inhibition at 0.5 µM: -3%
[6]; read-out: % inhibition @ 5 μM, PDGFRKalphaT674I (h)
  inhibition at 5 µM: 2%
[6]; read-out: % inhibition @ 20 μM, PDGFRKalphaT674I (h)
  inhibition at 20 µM: 45%
[7]
  IC50: > 25 µM
[8]
  EC50: > 10 µM
[9]; read-out: % inhibition @ 0.5 μM, Khs1 (h)
  inhibition at 0.5 µM: 15%
[9]; read-out: % inhibition @ 5 μM, Khs1 (h)
  inhibition at 5 µM: 27%
[9]; read-out: % inhibition @ 20 μM, Khs1 (h)
  inhibition at 20 µM: 52%
[10]
  IC50: > 10 µM
[11]
  EC50: > 10 µM
[12]
  IC50: > 10 µM
[13]
  IC50: > 10 µM
[14]
  IC50: > 10 µM
[15]; read-out: % inhibition @ 0.5 μM, Syk (h)
  inhibition at 0.5 µM: 32%
[15]; read-out: % inhibition @ 5 μM, Syk (h)
  inhibition at 5 µM: 36%
[15]; read-out: % inhibition @ 20 μM, Syk (h)
  inhibition at 20 µM: -15%
[16]
  IC50: > 10 µM
[17]; read-out: % inhibition @ 0.5 μM, PDGFRKalpha (h)
  inhibition at 0.5 µM: 28%
[17]; read-out: % inhibition @ 5 μM, PDGFRKalpha (h)
  inhibition at 5 µM: 41%
[17]; read-out: % inhibition @ 20 μM, PDGFRKalpha (h)
  inhibition at 20 µM: 55%
[18]
  IC50: > 25 µM
[19]
  EC50: > 10 µM
[20]
  EC50: > 10 µM
[21]
  CD163 expression in M2c macrophages: no Compound (I) dose effect
[22]
  IC50: > 10 µM
[23]
  IC50: > 10 µM
[24]
  EC50: > 10 µM
[25]
  IC50: > 25 µM
[26]
  EC50: > 10 µM
[27]; read-out: % inhibition @ 0.5 μM, CSF_1_RK (h)
  inhibition at 0.5 µM: 97%
[27]; read-out: % inhibition @ 5 μM, CSF_1_RK (h)
  inhibition at 5 µM: 99%
[27]; read-out: % inhibition @ 20 μM, CSF_1_RK (h)
  inhibition at 20 µM: 95%
[28]
  IC50: > 10 µM
[29]
  CD206 expression in M2a: dose-dependently decreased
[30]
  survival of fully differentiated, cytokine-polarized human macrophages (M1 or M2): did not affect
[31]
  IC50: > 25 µM
[32]
  IC50: > 25 µM
[33]
  IC50: > 25 µM
[34]
  EC50: > 10 µM
